# Experimental data taken from patent US8815840B2, “Carbazole and carboline kinase inhibitors” (Bristol-Myers Squibb Company, priority 2008, dated 2014).
# Molecular target: JAK2 (Homo sapiens (Human), UniProt O60674)
# Assay: JAK2 Tyrosine Kinase Assay
# Type: biochemical
# Conditions: ATP 30 μM; JAK2 1 nM; 60 min at room temperature
# Method: JAK2 Tyrosine Kinase Assay
# The assays were performed in V-bottom 384-well plates. […] The reaction was initiated by the combination of JAK2 with substrates and test compounds. The reaction was incubated at room temperature for 60 min. and terminated by adding 45 μl of 35 mM EDTA to each sample. The reaction mixture was analyzed on the Caliper LABCHIP® 3000 by electrophoretic separation of the fluorescent substrate and phosphorylated product. […] Compounds were dissolved at 10 mM in dimethylsulfoxide (DMSO) and evaluated at eleven concentrations, each in duplicate. IC50 values were derived by non-linear regression analysis
# Sequence of JAK2 (O60674 whole entry): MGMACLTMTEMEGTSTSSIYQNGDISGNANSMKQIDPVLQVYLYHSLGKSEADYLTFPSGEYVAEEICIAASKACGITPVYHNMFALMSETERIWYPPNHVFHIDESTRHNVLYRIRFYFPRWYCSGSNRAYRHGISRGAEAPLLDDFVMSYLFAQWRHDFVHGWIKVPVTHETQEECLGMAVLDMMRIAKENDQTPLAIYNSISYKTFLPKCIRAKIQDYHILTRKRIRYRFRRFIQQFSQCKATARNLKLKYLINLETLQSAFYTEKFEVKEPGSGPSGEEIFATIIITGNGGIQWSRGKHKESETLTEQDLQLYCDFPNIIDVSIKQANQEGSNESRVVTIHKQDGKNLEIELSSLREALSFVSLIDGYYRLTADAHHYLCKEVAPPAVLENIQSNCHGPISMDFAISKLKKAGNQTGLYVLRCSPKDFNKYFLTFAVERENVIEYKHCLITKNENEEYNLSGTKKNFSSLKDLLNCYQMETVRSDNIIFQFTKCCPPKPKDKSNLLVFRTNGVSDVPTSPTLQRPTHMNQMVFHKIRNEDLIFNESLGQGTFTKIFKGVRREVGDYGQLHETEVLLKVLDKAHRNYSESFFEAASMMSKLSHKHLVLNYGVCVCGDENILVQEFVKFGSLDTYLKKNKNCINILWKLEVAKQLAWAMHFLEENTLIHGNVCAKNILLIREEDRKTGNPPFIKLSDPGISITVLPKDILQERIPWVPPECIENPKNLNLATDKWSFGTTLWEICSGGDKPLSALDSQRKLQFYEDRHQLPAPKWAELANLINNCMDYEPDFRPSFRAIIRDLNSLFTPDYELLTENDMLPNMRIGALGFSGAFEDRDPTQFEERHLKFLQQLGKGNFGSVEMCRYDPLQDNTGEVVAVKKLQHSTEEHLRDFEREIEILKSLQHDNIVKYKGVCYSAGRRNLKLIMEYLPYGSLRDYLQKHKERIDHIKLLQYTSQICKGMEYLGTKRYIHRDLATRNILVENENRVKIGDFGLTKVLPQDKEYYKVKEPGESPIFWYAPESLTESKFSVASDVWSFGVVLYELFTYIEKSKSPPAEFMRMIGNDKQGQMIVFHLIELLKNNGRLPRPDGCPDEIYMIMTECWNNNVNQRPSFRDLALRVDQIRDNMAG
row,SMILES,IC50 [nM]
1,"COc1ccc(-c2cc(C(N)=O)c3[nH]c4cc(N5CCN(C)CC5)ccc4c3n2)cc1F [Example 310, 2-(3-fluoro-4-methoxyphenyl)-7-(4-methylpiperazin-1-yl)-5H-pyrido[3,2-b]indole-4-carboxamide]",1
2,"NC(=O)c1cc(-c2cccc(C(F)(F)F)c2)nc2c1[nH]c1cc(N3CCNCC3)ccc12 [Example 316, 7-(Piperazin-1-yl)-2-(3-(trifluoromethyl)phenyl)-5H-pyrido[3,2-b]indole-4-carboxamide]",6
3,"NC(=O)c1cc(-c2ccc(CN3CCOCC3)cc2)nc2c1[nH]c1cc(N3CCS(=O)(=O)CC3)ccc12 [Example 323, 7-(1,1-Dioxido-4-thiomorpholinyl)-2-(4-(4-morpholinylmethyl)phenyl)-5H-pyrido[3,2-b]indole-4-carboxamide]",1
4,"NC(=O)c1cc(-c2ccc(CN3CCOCC3)s2)nc2c1[nH]c1cc(N3CCOCC3=O)ccc12 [Example 324, 2-(5-(Morpholinomethyl)thiophen-2-yl)-7-(3-oxomorpholino)-5H-pyrido[3,2-b]indole-4-carboxamide]",1
5,"COc1ccc(-c2cc(C(N)=O)c3[nH]c4cc(N5CCOCC5)ccc4c3n2)cc1F [Example 344, 2-(3-fluoro-4-methoxyphenyl)-7-morpholino-5H-pyrido[3,2-b] indole-4-carboxamide]",1
6,"NC(=O)c1cc(-c2ccc(CN3CCOCC3)s2)nc2c1[nH]c1cc(N3CCOCC3)ccc12 [Example 345, 7-morpholino-2-(5-(morpholinomethyl)thiophen-2-yl)-5H-pyrido[3,2-b] indole-4-carboxamide]",1
7,"NC(=O)c1cc(-c2ccc(OCCN3CCOCC3)c(Cl)c2)nc2c1[nH]c1cc(N3CCOCC3)ccc12 [Example 353, 2-(3-Chloro-4-(2-morpholinoethoxy)phenyl)-7-morpholino-5H-pyrido[3 ,2-b]indole-4-carboxamide]",1
8,"COCCOc1ccc(-c2cc(C(N)=O)c3[nH]c4cc(N5CCOCC5)ccc4c3n2)cc1Cl [Example 357, 2-(3-chloro-4-(2-methoxyethoxy)phenyl)-7-morpholino-5H-pyrido[3,2-b]indole-4-carboxamide]",6
9,"NC(=O)c1cc(-c2ccc(OC3CCNCC3)c(Cl)c2)nc2c1[nH]c1cc(N3CCOCC3)ccc12 [Example 360, 2-(3-chloro-4-(piperidin-4-yloxy)phenyl)-7-morpholino-5H-pyrido[3,2-b]indole-4-carboxamide]",7
10,"COCCN1CCN(Cc2ccc(-c3cc(C(N)=O)c4[nH]c5cc(N6CCOCC6)ccc5c4n3)s2)CC1 [Example 373, 2-(5-((4-(2-methoxyethyl)piperazin-1-yl)methyl)thiophen-2-yl)-7-morpholino-5H-pyrido[3,2-b]indole-4-carboxamide]",6
11,"NC(=O)c1cc(-c2cc(CN3CCOCC3)co2)nc2c1[nH]c1cc(N3CCOCC3)ccc12 [Example 374, 7-morpholino-2-(4-(mor-pholinomethyl)furan-2-yl)-5H-pyrido[3,2-b]indole-4-carboxamide]",6
12,"COc1ccc(-c2cc(C(N)=O)c3[nH]c4cc(C(=O)O)ccc4c3c2)cc1F [Example 395, 8-Carbamoyl-6-(3-fluoro-4-methoxyphenyl)-9H-carbazole-2-carboxylate]",111
13,"NC(=O)c1cc(N2CCOCC2)nc2c1[nH]c1cc(C(=O)N3CCOCC3)ccc12 [Example 403, 7-(morpholine-4-carbonyl)-2-morpholino-5H-pyrido[3,2-b]indole-4-carboxamide]",142
14,"NC(=O)c1cc(N2CCC(N)CC2)nc2c1[nH]c1cc(C(=O)N3CCOCC3)ccc12 [Example 405, 2-(4-aminopiperidin-1-yl)-7-(morpholine-4-carbonyl)-5H-pyrido[3,2-b]indole-4-carboxamide]",636
15,"Cc1ccc(-c2cc(C(N)=O)c3[nH]c4ccc(C(=O)O)cc4c3c2)c(F)c1 [Example 424, 8-Carbamoyl-6-(2-fluoro-4-methylphenyl)-9H-carbazole-3-carboxylic acid]",1
